Earlier results as cited in EP4748406A1, “MEDICAL ADHESIVE AGENT AND MEDICAL ADHESIVE SHEET” (Nitto Denko Corporation, priority 2023, dated 2025).

water solubility at 20°C: 9.7 g/100 mL
Structure (SMILES): C=C(C)C(=O)O [MAA, methacrylic acid]
